# Key:
# [1] = system: metastatic NSCLC with a genetic mutation; assay: Case report Example 1: metastatic NSCLC patient on daily oral erlotinib; format: in vivo, human; details: person, 150 mg daily oral
# Source text: (§1) A person, whose child has a history of recurrent-remitting MS, developed severe back pain. […] After one year, their serum level of antithyroid peroxidase was reduced from 1719 to 366.
# mild plaque psoriasis = assay: Case report Example 1: psoriasis under erlotinib; format: in vivo, human; details: person, 150 mg daily oral
# Source text: as §1
# [2] = system: type 2 insulin requiring diabetes mellitus; assay: Case report Example 1: diabetes / insulin requirement under erlotinib; format: in vivo, human; details: person, 150 mg daily oral
# Source text: as §1
# Hashimoto's thyroiditis = assay: Case report Example 1: Hashimoto's thyroiditis, serum antithyroid peroxidase under erlotinib; format: in vivo, human; details: person; 150 mg daily oral; after one year; reduced from 1719 before treatment
# Source text: as §1
# [3] = system: NSCLC with a genetic mutation; assay: Case report Example 2: NSCLC in MS patient on erlotinib; format: in vivo, human; details: person; oral 150 mg daily; after six months
# Protocol: (§2) They were placed on interferon β-1a. […], they developed weakness in their lower extremities and was switched to natalizumab. […] […], independent of their MS, they developed NSCLC with a genetic mutation. Natalizumab was discontinued and erlotinib was initiated at an oral dose of 150 mg daily. […] Brain MRIs with contrast two months prior to starting erlotinib, immediately prior to starting erlotinib, and after three and six months on erlotinib are unchanged.
# MS = assay: Case report Example 2: course of MS (symptoms, brain MRI); format: in vivo, human
# Source text: A person was well, when they developed numbness and tingling in their lower extremities. A magnetic resonance imaging (MRI) of the brain, along with spinal fluid findings, were consistent with MS. […] From then, they were asymptomatic except for three exacerbations which also responded to intravenous methyl prednisone. They took no other medications for MS.
# as §2
# rheumatoid arthritis = assay: Example 3: patient with rheumatoid arthritis; format: in vivo, human; details: 150 mg daily for several weeks
# Protocol: A patient is diagnosed with rheumatoid arthritis. Erlotinib is administered in a dose of 150 mg daily for several weeks.
# Crohn's disease = assay: Example 4: patient with Crohn's disease; format: in vivo, human; details: 150 mg daily for several weeks
# Protocol: A patient is diagnosed with Crohn's disease. Erlotinib is administered in a dose of 150 mg daily for several weeks.
# multiple sclerosis = assay: Example 5: group of patients with multiple sclerosis, placebo controlled; format: in vivo, human; details: erlotinib 150, gefitinib 250, icotinib 300 mg daily for several weeks, versus placebo
# Protocol: (§3) A group of patients with multiple sclerosis is identified. The patients are administered erlotinib (150 mg daily), gefitinib (250 mg daily), icotinib (300 mg daily), or placebo in for several weeks. […] Following clinical improvement, the dose of erlotinib, gefitinb, or icotinib is reduced to a maintenance dose as low as 25 mg, 50 mg, or 75 mg daily, respectively.
# insulin resistance = assay: Example 6: group of patients with insulin resistance, placebo controlled; format: in vivo, human; details: erlotinib 150, gefitinib 250, icotinib 300 mg daily for several weeks, versus placebo
# Protocol: as §3, with “insulin resistance” for “multiple sclerosis”
# psoriasis = assay: Example 7: group of patients with psoriasis, placebo controlled; format: in vivo, human; details: erlotinib 150, gefitinib 250, icotinib 300 mg daily for several weeks, versus placebo
# Protocol: as §3, with “psoriasis” for “multiple sclerosis”
# [4] = on the face, scalp, neck, and back; cited from earlier work
compound,measurement,setting,value
C#Cc1cccc(Nc2ncnc3cc(OCCOC)c(OCCOC)cc23)c1 [erlotinib],evidence of NSCLC,[1]; after seven months,no evidence of NSCLC or psoriasis
same,severe back pain,[1]; three weeks after starting,their pain abated
same,evidence of psoriasis,mild plaque psoriasis; after seven months,no evidence of NSCLC or psoriasis
same,psoriasis,mild plaque psoriasis; three weeks after starting,their psoriasis cleared
same,insulin requirement / new medication to control diabetes,[2]; after seven months,remains off of insulin and has not required any new medication to control their diabetes
same,insulin requirement,[2]; after ten weeks,no longer required insulin
same,serum level of antithyroid peroxidase,Hashimoto's thyroiditis,366
same,cancer status,[3],total remission
same,enhancing lesions on brain MRI,"MS; person with MS, oral 150 mg daily, after three and six months",no enhancing lesions
same,brain MRIs with contrast,"MS; person with MS, oral 150 mg daily, after three and six months versus before starting",unchanged
same,clinical outcome,rheumatoid arthritis,Clinical improvement is seen
same,clinical outcome,Crohn's disease,Clinical improvement is seen
same,clinical outcome,multiple sclerosis,Clinical improvement is seen
same,clinical outcome,insulin resistance,Clinical improvement is seen
same,clinical outcome,psoriasis,Clinical improvement is seen
same,most common adverse effect,[4],mild to moderate reversible papulopustular skin eruption
COc1cc2ncnc(Nc3ccc(F)c(Cl)c3)c2cc1OCCCN1CCOCC1 [gefitinib],clinical outcome,multiple sclerosis,Clinical improvement is seen
same,clinical outcome,insulin resistance,Clinical improvement is seen
same,clinical outcome,psoriasis,Clinical improvement is seen
C#Cc1cccc(Nc2ncnc3cc4c(cc23)OCCOCCOCCO4)c1 [icotinib],clinical outcome,multiple sclerosis,Clinical improvement is seen
same,clinical outcome,insulin resistance,Clinical improvement is seen
same,clinical outcome,psoriasis,Clinical improvement is seen
methyl prednisone,response of MS at first presentation,"MS; patient one, intravenous",achieved total remission
same,response of three MS exacerbations,"MS; patient, intravenous",responded
natalizumab,MS symptoms,"MS; patient, since the switch",asymptomatic since that time

# Reference: US20130281448A1, “SMALL MOLECULE COMPOUNDS FOR TARGETING INFLAMMATORY CONDITIONS” (priority 2012, published 2013)
